What all share (type): functional
Assay [1] relates to PANC-1. The assay can be described thus: Antiproliferative activity against human PANC-1 cells assessed as […] cell proliferation at 10 uM incubated for 48 hrs in presence of 15 uM of CDDP by WST-1 assay relative to control. (Tetrazolium assays rely on reduction of a dye to a coloured formazan, in cell work by metabolically active cells.)
In assay [2] the test system is PANC-1. Briefly: Antiproliferative activity against human PANC-1 cells assessed as […] cell proliferation at 10 uM incubated for 48 hrs by WST-1 assay relative to control.
Assay [3] deals with HT-29. Briefly: Antiproliferative activity against human HT-29 cells assessed as […] cell proliferation at 10 uM incubated for 48 hrs by WST-1 assay relative to control.
In assay [4] the test system is HeLa. The assay can be described thus: Antiproliferative activity against human HeLa cells assessed as […] cell proliferation at 10 uM incubated for 48 hrs in presence of 15 uM of CDDP by WST-1 assay relative to control.
Assay [5] concerns A2780. The assay can be described thus: Antiproliferative activity against human A2780 cells assessed as […] cell proliferation at 10 uM incubated for 48 hrs by WST-1 assay relative to control.
For assay [6], the system named is HT-29. Briefly: Antiproliferative activity against human HT-29 cells assessed as […] cell proliferation at 10 uM incubated for 48 hrs in presence of 15 uM of CDDP by WST-1 assay relative to control.
In assay [7] the test system is MOLT-4. Briefly: Antiproliferative activity against human MOLT-4 cells assessed as […] cell proliferation at 10 uM incubated for 48 hrs by WST-1 assay relative to control.
For assay [8], the system named is SAOS-2. The assay can be described thus: Antiproliferative activity against human SAOS-2 cells assessed as […] cell proliferation at 10 uM incubated for 48 hrs by WST-1 assay relative to control.
For assay [9], the system named is Jurkat. The assay can be described thus: Antiproliferative activity against human Jurkat cells assessed as […] cell proliferation at 10 uM incubated for 48 hrs in presence of 2 uM of CDDP by WST-1 assay relative to control.
Assay [10] deals with A549. The assay can be described thus: Antiproliferative activity against human A549 cells assessed as […] cell proliferation at 10 uM incubated for 48 hrs by WST-1 assay relative to control.
For assay [11], the system named is Jurkat. The assay can be described thus: Antiproliferative activity against human Jurkat cells assessed as […] cell proliferation at 10 uM incubated for 48 hrs by WST-1 assay relative to control.
Assay [12] has as its system SAOS-2. The assay can be described thus: Antiproliferative activity against human SAOS-2 cells assessed as […] cell proliferation at 10 uM incubated for 48 hrs in presence of 15 uM of CDDP by WST-1 assay relative to control.
Assay [13] deals with MOLT-4. The assay can be described thus: Antiproliferative activity against human MOLT-4 cells assessed as […] cell proliferation at 10 uM incubated for 48 hrs in presence of 2 uM of CDDP by WST-1 assay relative to control.
Assay [14] relates to MCF7. Briefly: Antiproliferative activity against human MCF7 cells assessed as […] cell proliferation at 10 uM incubated for 48 hrs in presence of 10 uM of CDDP by WST-1 assay relative to control.
Assay [15] concerns HeLa. Briefly: Antiproliferative activity against human HeLa cells assessed as […] cell proliferation at 10 uM incubated for 48 hrs by WST-1 assay relative to control.
Assay [16] deals with A549. Briefly: Antiproliferative activity against human A549 cells assessed as […] cell proliferation at 10 uM incubated for 48 hrs in presence of 15 uM of CDDP by WST-1 assay relative to control.
Assay [17] relates to MCF7. Briefly: Antiproliferative activity against human MCF7 cells assessed as […] cell proliferation at 10 uM incubated for 48 hrs by WST-1 assay relative to control.
The test system of assay [18] is A2780. Briefly: Antiproliferative activity against human A2780 cells assessed as […] cell proliferation at 10 uM incubated for 48 hrs in presence of 2 uM of CDDP by WST-1 assay relative to control.

The structures appear in SMILES notation.

Experimental findings from ChEMBL document CHEMBL5113478, “7-Azaindole, 2,7-diazaindole, and 1H-pyrazole as core structures for novel anticancer agents with potential chemosensitizing properties” (Eur J Med Chem, 2022) are described below.

Turning to `CC(C)S(=O)(=O)c1ccc(-c2cnc3[nH]nc(C(=O)NCc4ccccc4)c3c2)cc1`, the Activity is on record as 60% with PANC-1 [1]; 90% in the assay with PANC-1 [2]; 60% with HeLa [4]; 90% in the assay on A2780 [5]; 60% in the assay with HT-29 [6]; 90% in the assay with MOLT-4 [7]. In addition, the Activity came out at 90% with SAOS-2 [8]; 60% with Jurkat [9]; 90% in the assay with A549 [10]; 90% in the assay with Jurkat [11]; 60% in the assay on SAOS-2 [12]; 60% in the assay with MOLT-4 [13]. Besides, the Activity in the assay on MCF7 [14] was determined as 60%; in the assay on HeLa [15] it was 90%; with A549 [16], 60%; with MCF7 [17], 90%; in the assay on A2780 [18], 60%. The “Cell viability relative to control” value in the assay on HT-29 [3] is recorded as 90%.
For `CCN1CCN(C(=O)c2c[nH]c3ncc(-c4ccc(S(=O)(=O)C(C)C)cc4)cc23)CC1`, the Activity with PANC-1 [1] is on record as 66%; in the assay with PANC-1 [2], 100%; with HeLa [4], 66%; in the assay on A2780 [5] it was 100%; in the assay on HT-29 [6], 66%; in the assay on MOLT-4 [7], 100%. For the same compound, the Activity with SAOS-2 [8] worked out at 100%; in the assay on Jurkat [9], 66%; in the assay with A549 [10], 100%; in the assay with Jurkat [11], 100%; in the assay with SAOS-2 [12], 66%; with MOLT-4 [13], 66%. Besides, the Activity in the assay with MCF7 [14] stood at 66%; in the assay with HeLa [15], 100%; with A549 [16], 66%; in the assay on MCF7 [17], 100%; in the assay on A2780 [18], 66%. Moreover, in the assay on HT-29 [3], the “Cell viability relative to control” value is recorded as 100%.
Take `CCN1CCN(C(=O)c2cc3cc(-c4ccc(S(C)(=O)=O)cc4)cnc3[nH]2)CC1`: the Activity with PANC-1 [1] was found to be 58%; in the assay on PANC-1 [2], 90%; with HeLa [4], 58%; with A2780 [5] it was 90%; in the assay on HT-29 [6], 58%; in the assay on MOLT-4 [7], 90%. For the same compound, the Activity in the assay with SAOS-2 [8] is 90%; in the assay on Jurkat [9], 58%; in the assay with A549 [10] it was 90%; in the assay on Jurkat [11], 90%; with SAOS-2 [12], 58%; with MOLT-4 [13] it was 58%. Also, the Activity in the assay on MCF7 [14] is listed as 58%; with HeLa [15], 90%; in the assay with A549 [16], 58%; with MCF7 [17], 90%; in the assay with A2780 [18] it was 58%. Also, the “Cell viability relative to control” value with HT-29 [3] is 90%.
For the compound `CC(C)S(=O)(=O)c1ccc(-c2cnc3[nH]cc(CN4CCc5ccccc5C4)c3c2)cc1`, the Activity in the assay on PANC-1 [1] is given as 62%; in the assay with PANC-1 [2] it was 101%; with HeLa [4], 62%; in the assay on A2780 [5], 101%; with HT-29 [6], 62%; in the assay with MOLT-4 [7] it was 101%. Also, the Activity is 101% in the assay on SAOS-2 [8]; 62% in the assay with Jurkat [9]; 101% in the assay on A549 [10]; 101% in the assay with Jurkat [11]; 62% in the assay on SAOS-2 [12]; 62% with MOLT-4 [13]. Also, the Activity is 62% in the assay on MCF7 [14]; 101% in the assay with HeLa [15]; 62% in the assay with A549 [16]; 101% in the assay with MCF7 [17]; 62% in the assay on A2780 [18]. In addition, the “Cell viability relative to control” value with HT-29 [3] amounted to 101%.
